In ChEMBL document CHEMBL5726751, “Substituted spirocyclic inhibitors of autotaxin” (2019):

Each molecule was assayed against Autotaxin (Homo sapiens, UniProt Q13822) (assay: The following assays and their respective methods are carried out with the compounds according to the present invention. […] Those skilled in the art will appreciate that a variety of assay formats may be used to determine the activity of the compounds of this invention.Autotaxin LPC Cascade Assay:Assay Buffer:100 mM Tris-HCl, pH=9500 mM NaCl5 mM MgCl25 mM CaCl20.05% Triton X 100Reagents:Enzyme Source Stock conc Working conc. Final conc. Autotaxin X-Chem 4.6 μM 20 nM 5 nM LPC Sigma L5254 8 mM in assay buffer 400 μM 100 μM Choline Oxidase Sigma C5896 50 U/mL in water 0.8 U/mL 0.1 U/mL HRP Sigma P8375 1000 U/mL in water 8 U/mL 1 U/mL Ampliflu Red Sigma 90101 100 mM in DMSO 400 μM 50 μM.).
Assay type: organism-based
With CN1C(=O)N(c2ccc3[nH]ncc3c2)C2(CCN(C(=O)C3(NC(=O)c4cc(C(F)(F)F)ccc4F)COC3)CC2)C1=O the IC50 was over 1000 nM.
Work on Cc1cccc(C(=O)N(C)[C@@H](C(=O)N2CCC3(CC2)C(=O)N(C)CN3c2ccccc2)C(C)C)c1 yielded an IC50 of over 1000 nM.
CC(C)[C@@H](NC(=O)c1cc(C(F)(F)F)ccc1F)C(=O)N1CCC2(CC1)C(=O)N(C)C(=O)N2c1ccc(OCCN(C)C)cc1 was tested, and the IC50 was over 1000 nM.
With Cc1cccc(C(=O)N[C@@H](C(=O)N2CCC3(CC2)C(=O)N(C)CN3c2cccc(C#N)c2)C(C)C)c1F the IC50 was over 1000 nM.
With CC(C)[C@@H](NC(=O)c1ccc(C#N)c(Cl)c1)C(=O)N1CCC2(CC1)C(=O)N(C)CN2c1ccccc1 the IC50 was over 1000 nM.
